This assay relates to Helix pomatia agglutinin (HPA). Put plainly: Bio-layer interferometry. The note with it: SA and SSA sensors; monovalent reference and negative control. The assay is classed as binding. A general note: In BLI a coated tip is dipped into the sample, and binding shifts an interference pattern.

In the case of `CC(=O)N[C@H]1C(O)O[C@H](CO)[C@H](O)[C@@H]1O` (stereo partly shown) [GalNAc], the BLI binding signal result was “no detectable signal”.

(Values after article PMC6289105 (Organic & Biomolecular Chemistry, 2018).)
